Read-outs that look alike come from different tables or passages of the source.
How the values were obtained:
11β-HSD1 [1] = biological target: T1, 11β-HSD1 (Homo sapiens, UniProt P28845); settings: for Average % inhibition at 100 nM: 0.1 µM; for IC50: read-out: IC50 Range; for Average % inhibition at 111.1 nM: 111.1 nM compound, 0.1111 µM
11β-HSD1 [2] = biological target: T1, 11β-HSD1; test: biochemical; settings: for IC50: IC50 Range; for inhibition at 0.1111 µM: read-out: Average % inhibition at 111.1 nM, Biological Test Example 1, 111.1 nM
[3] = Biological Test Example 1, microsomes from CHO cells overexpressing human 11β-HSD1
[4] = read-out: Average % inhibition at 100 nM, Biological Test Example 1, 100 nM

T1 sequence (P28845 whole entry): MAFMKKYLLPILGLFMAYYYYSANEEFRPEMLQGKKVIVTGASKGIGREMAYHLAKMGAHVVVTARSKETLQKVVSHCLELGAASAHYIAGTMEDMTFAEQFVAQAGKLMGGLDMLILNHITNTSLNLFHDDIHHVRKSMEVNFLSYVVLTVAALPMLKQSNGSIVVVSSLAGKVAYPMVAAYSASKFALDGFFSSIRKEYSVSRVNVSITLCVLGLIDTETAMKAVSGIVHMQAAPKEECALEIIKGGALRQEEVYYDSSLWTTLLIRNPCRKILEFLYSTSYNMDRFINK

Compound	IC50 (11β-HSD1 [2]; [3]) [nM]	inhibition at 0.1 µM (11β-HSD1 [2]; [4]) [%]	further results
3-((S)-1-(2′,4′-difluorobiphenyl-4-yl)ethyl)-6-(2-hydroxyethyl)-6-isopropyl-1,3-oxazinan-2-one [EXAMPLE 207 Isomer 1]	–	–	Average % inhibition at 100 nM (11β-HSD1 [1]): 89.9%; IC50 (11β-HSD1 [1]): < 100 nM
3-((S)-1-(2′,4′-difluorobiphenyl-4-yl)ethyl)-6-(2-hydroxyethyl)-6-isopropyl-1,3-oxazinan-2-one [EXAMPLE 207 Isomer 2]	–	–	Average % inhibition at 100 nM (11β-HSD1 [1]): 89.3%; IC50 (11β-HSD1 [1]): < 100 nM
C[C@@H](c1ccccc1)N1CCC(C)(c2ccccc2)OC1=O (single isomer, unassigned) [EXAMPLE 82 Isomer 2]	–	–	Average % inhibition at 111.1 nM (11β-HSD1 [1]; Biological Test Example 1): 89.2%; IC50 (11β-HSD1 [1]; [3]): < 100 nM
C[C@H](c1ccccc1)N1CCC(C)(c2ccccc2)OC1=O (single isomer, unassigned) [EXAMPLE 83 Isomer 2]	–	–	Average % inhibition at 111.1 nM (11β-HSD1 [1]; Biological Test Example 1): 45.8%; IC50 (11β-HSD1 [1]; [3]): 100 to 1000 nM
C=CC1(c2ccc(F)cc2)CCN([C@@H](C)c2ccccc2)C(=O)O1 (single isomer, unassigned) [EXAMPLE 113 Isomer 2]	–	–	Average % inhibition at 111.1 nM (11β-HSD1 [1]; Biological Test Example 1): 82.6%; IC50 (11β-HSD1 [1]; [3]): < 100 nM
CC(O)C[C@]1(c2ccc(F)cc2)CCN([C@@H](C)c2ccc(-c3ccc(F)cc3F)cc2)C(=O)O1 (single isomer, unassigned) [EXAMPLE 137 Isomer 2]	–	–	IC50 (11β-HSD1 [1]; [3]): < 100 nM
C[C@@H](c1ccc(Cl)c(F)c1)N1CC[C@](CCCNS(C)(=O)=O)(c2ccc(F)cc2)OC1=O [EXAMPLE 535, N-(3-((R)-3-((S)-1-(4-chloro-3-fluorophenyl)ethyl)-6-(4-fluorophenyl)-2-oxo-1,3-oxazinan-6-yl)propyl)methanesulfonamide]	< 100	96.8	–
CC[C@@H](c1ccc(OC(F)F)cc1)N1CC[C@](CCC(N)=O)(c2ccccc2)OC1=O [EXAMPLE 537, 3-((R)-3-((S)-1-(4-(difluoromethoxy)phenyl)propyl)-2-oxo-6-phenyl-1,3-oxazinan-6-yl)propanamide]	< 100	94.7	–
Cc1cc(-c2ccc([C@H](C)N3CC[C@](CC(C)(C)O)(c4ccc(F)cc4)OC3=O)cc2)cc(C)[n+]1[O-] [EXAMPLE 557, 4-(4-((S)-1-((S)-6-(4-fluorophenyl)-6-(2-hydroxy-2-methylpropyl)-2-oxo-1,3-oxazinan-3-yl)ethyl)phenyl)-2,6-dimethylpyridine 1-oxide]	–	–	inhibition at 0.1111 µM (11β-HSD1 [2]): 89.7%
C[C@@H](c1ccc(-c2ccc(F)cc2)cc1)N1CC[C@](CC(C)(C)C(N)=O)(c2ccccc2)OC1=O [EXAMPLE 568, 3-((R)-3-((S)-1-(4′-fluorobiphenyl-4-yl)ethyl)-2-oxo-6-phenyl-1,3-oxazinan-6-yl)-2,2-dimethylpropanamide]	< 100	97.7	–
C[C@@H](c1ccc(Cl)cc1F)N1CC[C@](CC(C)(C)C(N)=O)(c2ccc(F)cc2)OC1=O [EXAMPLE 578, 3-((R)-3-((S)-1-(4-chloro-2-fluorophenyl)ethyl)-6-(4-fluorophenyl)-2-oxo-1,3-oxazinan-6-yl)-2,2-dimethylpropanamide]	< 100	97.7	–
C[C@@H](c1ccc(Br)cc1F)N1CC[C@](CCCO)(c2ccc(F)cc2)OC1=O [EXAMPLE 581, (R)-3-((S)-1-(4-bromo-2-fluorophenyl)ethyl)-6-(4-fluorophenyl)-6-(3-hydroxypropyl)-1,3-oxazinan-2-one]	< 100	96.4	–
NC(=O)c1ccc(N2CCC[C@H](N3CC[C@](CCCO)(c4ccc(F)cc4)OC3=O)C2)nc1 [EXAMPLE 584, 6-((S)-3-((R)-6-(4-fluorophenyl)-6-(3-hydroxypropyl)-2-oxo-1,3-oxazinan-3-yl)piperidin-1-yl)nicotinamide]	–	–	inhibition at 0.1111 µM (11β-HSD1 [2]): 77%
CC(=O)N(C)CC[C@]1(c2ccccc2)CCN([C@@H](C)c2ccc(Br)cc2)C(=O)O1 [EXAMPLE 586, N-(2-((R)-3-((S)-1-(4-bromophenyl)ethyl)-2-oxo-6-phenyl-1,3-oxazinan-6-yl)ethyl)-N-methylacetamide]	< 100	98	–
C[C@@H](c1ccc(Br)cc1)N1CC[C@](CC(C)(C)NC(=O)C(C)(C)C)(c2ccccc2)OC1=O [EXAMPLE 693, N-(1-((S)-3-((S)-1-(4-bromophenyl)ethyl)-2-oxo-6-phenyl-1,3-oxazinan-6-yl)-2-methylpropan-2-yl)pivalamide]	–	–	IC50 (11β-HSD1 [2]; microsomes from CHO cells overexpressing human 11β-HSD1): > 100 nM; inhibition at 0.1 µM (11β-HSD1 [2]; read-out: Average % inhibition at 100 nM, 100 nM compound, microsomes from CHO cells overexpressing human 11β-HSD1): 17.6%

The next lines start with results.

IC50 (11β-HSD1 [2]; [3]) [nM]	inhibition at 0.1 µM (11β-HSD1 [2]; [4]) [%]	Compound	further results
< 100	90.6	Cc1nnc(CC[C@]2(c3ccccc3)CCN([C@@H](C)c3ccc(Br)cc3)C(=O)O2)o1 [EXAMPLE 595, (R)-3-((S)-1-(4-bromophenyl)ethyl)-6-(2-(5-methyl-1,3,4-oxadiazol-2-yl)ethyl)-6-phenyl-1,3-oxazinan-2-one]	–
< 100	89.4	Cc1nnc(CC[C@]2(c3ccccc3)CCN([C@@H](C)c3ccc(Br)cc3)C(=O)O2)s1 [EXAMPLE 601, (R)-3-((S)-1-(4-bromophenyl)ethyl)-6-(2-(5-methyl-1,3,4-thiadiazol-2-yl)ethyl)-6-phenyl-1,3-oxazinan-2-one]	–
< 100	98.6	C[C@@H](c1ccc(Cl)cc1F)N1CC[C@](CCCNS(C)(=O)=O)(c2ccc(F)cc2)OC1=O [EXAMPLE 602, N-(3-((R)-3-((S)-1-(4-chloro-2-fluorophenyl)ethyl)-6-(4-fluorophenyl)-2-oxo-1,3-oxazinan-6-yl)propyl)methanesulfonamide]	–
< 100	85.8	CC(=O)NCC(C)(C)C[C@]1(c2ccc(F)cc2)CCN([C@@H](C)c2ccc(Br)cc2)C(=O)O1 [EXAMPLE 605, N-(3-((R)-3-((S)-1-(4-bromophenyl)ethyl)-6-(4-fluorophenyl)-2-oxo-1,3-oxazinan-6-yl)-2,2-dimethylpropyl)acetamide]	–
< 100	96.2	COC(=O)NC(C)(C)C[C@]1(c2ccc(F)cc2)CCN([C@@H](C)c2ccc(Br)cc2)C(=O)O1 [EXAMPLE 606, methyl 1-((S)-3-((S)-1-(4-bromophenyl)ethyl)-6-(4-fluorophenyl)-2-oxo-1,3-oxazinan-6-yl)-2-methylpropan-2-ylcarbamate]	–
< 100	84.7	C[C@@H](c1ccc(Br)cc1)N1CC[C@](CC(C)(C)CNS(C)(=O)=O)(c2ccc(F)cc2)OC1=O [EXAMPLE 608, N-(3-((R)-3-((S)-1-(4-bromophenyl)ethyl)-6-(4-fluorophenyl)-2-oxo-1,3-oxazinan-6-yl)-2,2-dimethylpropyl)methanesulfonamide]	–
< 100	68.7	CCOC(=O)NCC[C@]1(c2ccc(F)cc2)CCN([C@@H](C)c2ccc(Br)cc2)C(=O)O1 [EXAMPLE 620, ethyl 2-((R)-3-((S)-1-(4-bromophenyl)ethyl)-6-(4-fluorophenyl)-2-oxo-1,3-oxazinan-6-yl)ethylcarbamate]	–
< 100	78.3	C[C@@H](c1ccc(Br)cc1)N1CC[C@](CC(C)(C)N)(c2ccc(F)cc2)OC1=O [EXAMPLE 621, (S)-6-(2-amino-2-methylpropyl)-3-((S)-1-(4-bromophenyl)ethyl)-6-(4-fluorophenyl)-1,3-oxazinan-2-one]	–
< 100	94.8	CC(=O)NC(C)(C)C[C@]1(c2ccc(F)cc2)CCN([C@@H](C)c2ccc(Br)cc2)C(=O)O1 [EXAMPLE 626, N-(1-((S)-3-((S)-1-(4-bromophenyl)ethyl)-6-(4-fluorophenyl)-2-oxo-1,3-oxazinan-6-yl)-2-methylpropan-2-yl)acetamide]	–
